Molecules are shown by their SMILES.

The target in this test is T1, HsDLH (Homo sapiens, UniProt Q96DG6).
T1 construct: gene CMBL; N-terminal His6-Twin-Strep-SUMO tag kept, E. coli BL21(DE3), Ni-NTA
T1 sequence (Q96DG6 1-245): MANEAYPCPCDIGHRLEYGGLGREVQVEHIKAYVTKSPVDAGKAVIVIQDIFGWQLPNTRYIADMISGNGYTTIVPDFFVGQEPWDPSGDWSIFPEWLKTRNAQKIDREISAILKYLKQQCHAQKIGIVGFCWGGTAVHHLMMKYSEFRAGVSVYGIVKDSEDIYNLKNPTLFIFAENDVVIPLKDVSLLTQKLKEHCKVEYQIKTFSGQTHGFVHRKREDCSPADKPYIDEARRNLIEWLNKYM
Type of test: biochemical.

In the case of `CCOP(=O)(OCC)Oc1ccc2c(c1)Oc1cc(OP(=O)(OCC)OCC)ccc1C21OC(=O)c2ccccc21` [FDDEP], the KM result is reported as “displays very weak activity towards the fluorogenic phosphotriester FDDEP”.

(Values after publication doi:10.1101/2025.10.30.685675v2 (biorxiv, 2026).)
